{"source": "paper PMC7440915", "about": "“Discovery of surrogate agonists for visceral fat Treg cells that modulate metabolic indices in vivo” (eLife, 2020)", "test_system": "vTreg53 Treg cells", "experiment": "RNA-seq of transferred clonotype^+ Treg cells after immunization", "assay_type": "in vivo, mouse", "text": "Figure 5. Transcriptional analyses of vTreg53 Treg cells stimulated by Fat1562 in vivo. (A–C) CD45.2^+ vTreg53 Treg cells were transferred i.v. into CD45.1^+ B6 mice. 6 weeks later, the recipient mice were immunized with CFA alone or CFA/Fat1562 s.c., and one week later, boosted with IFA alone or IFA/Fat1562 i.p. CD45.2^+ clonotype^+ Treg cells were sorted from Spl/LNs or VAT of the recipient mice one week later for RNA-Seq. (A) Volcano plot comparing gene expression of transferred clonotype^+ Treg cells in the VAT and Spl/LNs of recipient mice immunized with adjuvant alone (left) or with adjuvant/Fat1562 (right). VAT-Treg signature genes are highlighted in red (induced) or blue (repressed). The number of genes from each signature preferentially expressed by one or the other population are shown at the top. (B) GSEA analysis of top KEGG pathways (p<0.05) that are enriched in cells activated by adjuvant/Fat1562 compared with adjuvant alone in VAT (left) or Spl/LN (right). NES, normalized enrichment score. FDR, false discovery rate. (C) Normalized reads of Pparg transcript in CD45.2^+ clonotype^+ Treg cells sorted from mice immunized with adjuvant alone or adjuvant/Fat1562. Data are mean ± SD. (D) Volcano plot comparing gene expression of transferred clonotype^+ Treg cells in mice immunized with adjuvant/Fat1562 and adjuvant alone in the VAT (left) and spleen (right). Representative transcripts are highlighted.\n6–8 week-old B6.CD45.1^+ mice were transferred with Tg^+ Treg cells from Spl/LNs, and six weeks later were primed with 200 μg CFA/peptides s.c. and boosted with 100 μg IFA/peptides i.p. as described in the ‘Treg transfer and peptide immunization’ section. Biological replicates (n ≥ 2) of 1000 clonotype^+ CD45.2^+ Treg cells from the Spl/LNs or VAT of recipient mice were double-sorted by Moflo directly into 5ɥl lysis buffer (TCL Buffer (Qiagen) with 1% 2-Mercaptoethanol), Smart-seq2 libraries were prepared as previously described ([Picelli et al., 2014]) with slight modifications. Briefly, total RNA was captured and purified on RNAClean XP beads (Beckman Coulter). Polyadenylated mRNA was then selected using an anchored oligo(dT) primer (5′–[…]30VN-3) and converted to cDNA via reverse transcription. First-strand cDNA was subjected to limited PCR amplification followed by Tn5 transposon-based fragmentation using the Nextera XT DNA Library Preparation Kit (Illumina). Samples were then PCR amplified for 18 cycles using barcoded primers such that each sample carried a specific combination of eight-base Illumina P5 and P7 barcodes and were pooled together prior to Smart sequencing. Smart-seq paired-end sequencing was performed on an Illumina NextSeq500 using 2 × 38 bp reads with no further trimming. Transcripts were quantified by the Broad Technology Labs computational pipeline with Cuffquant version 2.2.1 ([Trapnell et al., 2012]). Normalized reads were further filtered by minimal expression (>10) and coefficient of variation (<0.7), and then analyzed by Multiplot Studio in the GenePattern software package. Pathway enrichment analysis was done using GSEA.", "note": "Entries after “also recorded” stand apart in the source; their conditions may differ. Where no end group is shown, it is not given here.", "data": [{"sequence": "TMYKNPRPMAATG [Fat1562]", "values": [{"measurement": "Pparg mRNA levels in Spl/LN relative to VAT", "setting": "Spl/LN vs Fat1562-stimulated VAT Treg cells", "result": "substantially lower"}, {"measurement": "Pparg mRNA levels", "setting": "Treg cells stimulated by Fat1562 in vivo (Spl/LN)", "result": "significantly increased; also recorded: increase in Pparg mRNA levels"}, {"measurement": "Lag3 and Tigit expression", "setting": "VAT, adjuvant/Fat1562 vs adjuvant alone", "result": "upregulated"}, {"measurement": "pathway enrichment in VAT Treg cells, GSEA", "setting": "VAT, adjuvant/Fat1562 vs adjuvant alone: cell division and glycolysis", "result": "significant enrichment in pathways and transcripts related to cell division (E2F targets, G2M checkpoint, MYC targets, Mitotic spindle) and glycolysis"}, {"measurement": "VAT-Treg signature gene expression", "setting": "clonotype^+ VAT Treg cells, adjuvant/Fat1562", "result": "preserved the typical VAT-Treg characteristics; also recorded: maintained the typical VAT-Treg signature"}, {"measurement": "cholesterol homeostasis genes", "setting": "lymphoid organs, adjuvant/Fat1562 vs adjuvant alone (e.g. Pparg, Nfil3, Srebf2)", "result": "enrichment of genes involved in cholesterol homeostasis"}, {"measurement": "inflammatory cytokine response genes", "setting": "lymphoid organs, adjuvant/Fat1562 vs adjuvant alone, IFNα, IFNγ, TNFα", "result": "increased expression of genes associated with responses to inflammatory cytokines (IFNα, IFNγ, and TNFα)"}]}]}
